This data set is described as follows: Apparent permeability across apical to basolateral side in human Caco-2 cells monolayer. In kind it is ADME, cell-based.

Molecules are shown by their SMILES.

Turning to `CSc1nc(-c2cccc(NC(=O)c3c(F)ccc(O)c3CN3C(=O)c4ccccc4C3=O)c2)c(-c2ccnc(NC(C)=O)c2)[nH]1`, the Papp entry was “Impermeable”.

Turning to `C=CC(=O)Nc1ccc(OC)c(Nc2cc(-c3[nH]c(SC)nc3-c3cccc(NC(=O)c4c(F)ccc(O)c4CN4C(=O)c5ccccc5C4=O)c3)ccn2)c1`, the Papp result is given as “Impermeable”.

Values taken from ChEMBL document CHEMBL5154643, “Design of a "Two-in-One" Mutant-Selective Epidermal Growth Factor Receptor Inhibitor That Spans the Orthosteric and Allosteric Sites” (J Med Chem, 2022).
